Structures can show the parent of a compound that is named as a salt.
Columns and labels:
[1] = test system: Secretion of ApoB; experiment: Quantification of the secretion of ApoB in HepG2 cells; type: cell-based; settings: Homo sapiens, HepG2, 24 h, 24 hours of incubation with test compound, immunoprecipitation of apoB from medium, read-out: pIC50 value (=-log IC50 value), secretion of ApoB (converted)
Outline: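 At 70% confluency, HepG2 cells in MEM with 10% FCS received compound or DMSO carrier (0.4% final) for 24 h. Secreted apoB in cleared medium immunoprecipitated with sheep anti-apoB then rabbit anti-sheep antibody (24 h each, 8° C); pellet radioactivity counted by liquid scintillation; IC50 expressed as pIC50.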

Row | melting point [°C] | IC50 [1] [nM] | Compound
1 | 165 |  | CCCN(CCC)C(=O)C(CCN1CCN(c2ccc(-n3cnn(C(C)C)c3=O)cc2)CC1)c1ccccc1 (centres unmarked) (as salt: salt) [Compound 2]
2 | 198 to 200 | 31.6 to 316 | CC(C)n1ncn(-c2ccc(N3CCN(C(C(=O)Nc4ccc5c(c4)CCC5)c4cccnc4)CC3)cc2)c1=O (centres unmarked) [Compound 209]
3 | 142 to 143 |  | CCOC(=O)C(c1cccnc1)N1CCN(c2ccc(-n3cnn(C(C)C)c3=O)cc2)CC1 (centres unmarked) [Compound 302]
4 |  | 316 to 3160 | COC(=O)C(NC(=O)CC1CCN(c2ccc(-n3cnn(C(C)c4ccccc4)c3=O)cc2)CC1)C(C)C (centres unmarked) [Compound 401]
5 |  | 316 to 3160 | CCOC(=O)CCNC(=O)CC1CCN(c2ccc(-n3cnn(C(C)c4ccccc4)c3=O)cc2)CC1 (centres unmarked) [Compound 402]
6 |  | 316 to 3160 | CCOC(=O)C(C)NC(=O)CC1CCN(c2ccc(-n3cnn(C(C)c4ccccc4)c3=O)cc2)CC1 (centres unmarked) [Compound 403]
7 |  | 316 to 3160 | CCOC(=O)CC(NC(=O)CC1CCN(c2ccc(-n3cnn(C(C)c4ccccc4)c3=O)cc2)CC1)c1ccc2c(c1)OCO2 (centres unmarked) [Compound 404]
